SMILES strings stand for the structures. Counter-ions that a name gives are not always drawn. Like-named read-outs stand apart in the source and are kept apart here.

In assay [1] the test system is orientation hypermotility. Kind of assay: Sedative action (orientation hypermotility induced by a new environment, mice). It is filed as in vivo, mouse (NMRI, female). To be noted: for Sedative effect R.A. (relative activity): chlorpromazine = 1.00; for effect in respect of sedation, % of that of chlorpromazine: relative to chlorpromazine; for sedative-neuroleptic properties: according to Table 1. The procedure: The substance was administered orally to 4-8 groups each comprising 3 female NMRI mice. The orientation hypermotility induced by a new environment is determined photoelectrically, 30 minutes after administration of the substance, over a period of 30 minutes. The ED 50%, ie. the dose which produces a 50% reduction in orientation hypermotility compared to placebo-treated control animals, is determined.

The test system of the next assay is catalepsy. Kind of assay: Cataleptic action (front extremities on 8 cm high bar, rats). In kind it is in vivo, rat (Sprague-Dawley, female). To be noted: for ED50: ip, read-out: Cataleptic effect ED 50%; for Cataleptic effect R.A. (relative activity): chlorpromazine = 1.00; for effect in respect of catalepsy, % of that of chlorpromazine: relative to chlorpromazine. The procedure: 30, 60, 120 and 240 minutes after intraperitoneal administration of the substance, female Sprague-Dawley rats were placed with the front extremities on an 8 cm high bar. If, because of postural rigidity, the animals remain in this position for longer than 15 seconds, they are regarded as cataleptic.

Another assay has as its system blood pressure. Description: Hypotensive action (blood pressure in carotid artery of rats under urethane narcosis). In kind it is in vivo, rat (Sprague-Dawley). To be noted: for Hypotensive effect R.A. (relative activity): chlorpromazine = 1.00; for Hypotensive effect R.A. (relative activity) / Hypotensive effect ED 20% / ED20: rat; for ED20: read-out: Hypotensive effect ED 20%; for hypotensive action, doses compared with chlorpromazine / comparison with chlorpromazine, taking into account the hypotensive effect: in words; for quotient of the sedative effective dose and the hypotensive effective dose, times more advantageous than for chlorpromazine: relative to chlorpromazine. As to the method:
The blood pressure was measured in the carotid artery. The substance was administered either by introduction into a jugular vein (as an aqueous solution, at the rate of 1 ml/kg) or intraperitoneally as a suspension in tragacanth (at the rate of 10 ml/kg). The ED 20%, ie. the dose which produces a 20% lowering of the blood pressure, was determined from the linear regression of log dose (mg/kg) and relative lowering of the blood pressure (Δ%).

The next assay concerns histamine bronchospasm. Kind of assay: Broncholytic action (histamine-induced bronchospasm, guineapigs under urethane narcosis). It is filed as in vivo, guineapig (Pirbright white). The settings on record: guineapig. As to the method: Male or female guineapigs (Pirbright white, weight 300-500 g) under urethane narcosis (1.5 g/kg administered intraperitoneally) are subjected to artificial respiration using a tracheal cannula. Bronchospasms are caused by intravenous injection of histamine dihydrochloride (1.0-4.64 μg/kg), and an antagonistic effect on these can be brought about by prior intravenous administration of the test substance. The spasms are recorded by the method of Konzett and Rossler (Naunyn Schmiedeberg's Arch. 195 (1940), 71), via inductive pressure sensors.

The mark [2] stands for this setting: Table 2, sedative ED 50% vs hypotensive ED 20% i.p.
Where [3] appears, read: Table 2, sedative ED 50% vs hypotensive ED 20% i.v.
Setting [4] is: ip, Table 2, i.p., dose which reduces the blood pressure by 20%.
The mark [5] stands for this setting: iv, Table 2, i.v., dose which reduces the blood pressure by 20%.
[6] abbreviates: Table 2, mouse, oral, dose which reduces the motility by 50%, read-out: Sedative effect ED 50%.
The mark [7] stands for this setting: Table 1, mouse, oral, dose producing 50% reduction in orientation hypermotility, read-out: Sedative effect ED 50%.
[8] abbreviates: Table 1, rat, intraperitoneal, dose at which 50% of animals are cataleptic.

For the molecule `CN(C)CCCN1c2ccccc2Sc2ccc(Cl)cc21` [chlorpromazine, reference compound], the “Sedative effect R.A. (relative activity)” value in assay [1] (Table 1, mouse, oral) was 1.0; in assay [1] (Table 2, mouse, oral) it was 1.00. Moreover, the “Sedative effect ED 50%” value in assay [1] (Table 1, mouse, oral, dose producing 50% reduction in orientation hypermotility) turned out to be 2.11. Further, the ED50 with catalepsy (Rattus norvegicus) worked out at 4.3 mg/kg. Further, the “Cataleptic effect R.A. (relative activity)” value in the assay with catalepsy (Table 1, rat, intraperitoneal) came to 1.0. The “Hypotensive effect R.A. (relative activity)” value is given as 1.0 with blood pressure (Table 1, i.p.); 1.0 in the assay on blood pressure (Table 1, i.v.); 1.00 in the assay on blood pressure (Table 2, i.p.); 1.00 in the assay with blood pressure (Table 2, i.v.). The “Q (quotient of the sedative effective dose and the hypotensive effective dose)” value with blood pressure (Table 1, hypotensive dose i.v.) worked out at 81.1. The “Hypotensive effect ED 20%” value in the assay with blood pressure (Table 1, i.p., dose producing 20% lowering of blood pressure) is listed as 0.164; with blood pressure (Table 1, i.v., dose producing 20% lowering of blood pressure), 0.026. Moreover, the Q came to 13 with blood pressure (setting [2]) and 81 with blood pressure (setting [3]). Besides, the ED20 stood at 0.164 mg/kg in the assay with blood pressure (setting [4]) and 0.026 mg/kg with blood pressure (setting [5]).

Consider `COc1ccccc1N1CCN(CC(O)COc2ccccc2-c2ccnc(N)n2)CC1` (stereo not drawn) [Example 5, 1-[2-(2-Aminopyrimidin-4-yl)-phenoxy]-3-[4-(2-methoxyphenyl)-piperazin-1-yl]-propan-2-ol], for which, in assay [1] (Table 2), the “doses at which sedative side-effect is observed relative to hypotensive doses” value is recorded as 400-1,300 times greater. Further, the “Sedative effect R.A. (relative activity)” value in assay [1] (Table 2, mouse, oral) came to 0.06. Moreover, the ED50 in assay [1] (setting [6]) came out at 32.8 mg/kg. For the same molecule, the “Hypotensive effect R.A. (relative activity)” value in the assay with blood pressure (Table 2, i.p.) was determined as 2.06. In addition, the Q in the assay with blood pressure (setting [2]) stood at 413. In the assay on blood pressure (Table 2), the “hypotensive action, doses compared with chlorpromazine” value is on record as “at lower doses than chlorpromazine”. Besides, the ED20 with blood pressure (setting [4]) is 0.0795 mg/kg.

Regarding `COc1ccccc1N1CCN(CC(O)COc2ccccc2-c2cc[nH]n2)CC1` (stereo not drawn) [Example 10, 1-[2-(Pyrazol-3-yl)-phenoxy]-3-[4-(2-methoxyphenyl)-piperazin-1-yl]-propan-2-ol.HCl], the “doses at which sedative side-effect is observed relative to hypotensive doses” value in assay [1] (Table 2) was 400-1,300 times greater. Moreover, the “Sedative effect R.A. (relative activity)” value in assay [1] (Table 2, mouse, oral) is 0.15. In addition, the ED50 in assay [1] (setting [6]) was found to be 14.5 mg/kg. The “Hypotensive effect R.A. (relative activity)” value in the assay with blood pressure (Table 2, i.v.) stood at 0.79. The Q in the assay with blood pressure (setting [3]) is given as 442. For the same molecule, in the assay with blood pressure (Table 2), the “hypotensive action, doses compared with chlorpromazine” value was “at lower doses than chlorpromazine”. Also, the ED20 with blood pressure (setting [5]) was 0.0328 mg/kg.

Take `COc1cccc(N2CCN(CC(O)COc3ccc(-n4cncn4)cc3)CC2)c1` (stereo not drawn) [Example 1, 1-[4-(1,2,4-Triazol-1-yl)-phenoxy]-3-[4-(3-methoxyphenyl)-piperazin-1-yl]-propan-2-ol]: the ED50 in assay [1] (Mus musculus, po, read-out: sedative effect ED 50%) was 7.6 mg/kg. Moreover, the sedative action result in assay [1] (in words) is on record as “relatively slight sedative action”. The “effect in respect of sedation, % of that of chlorpromazine” value in assay [1] is 28%. Further, the “inhibition of histamine bronchospasm (average)” value in the assay with histamine bronchospasm (0.1 mg/kg intravenously) was determined as 87%. For the same molecule, the “broncholytic effect on the histamine bronchospasm” value in the assay on histamine bronchospasm (in words) is given as “strong broncholytic effect”.

In the case of `OC(COc1ccc(-n2ccnc2)cc1)CN1CCN(c2ccc(F)cc2)CC1` (stereo not drawn) [Example 3, 1-[4-(Imidazol-1-yl)-phenoxy]-3-[4-(4-fluorophenyl)-piperazin-1-yl]-propan-2-ol], the “Sedative effect R.A. (relative activity)” value in assay [1] (Table 1, mouse, oral) is reported as 0.77. Further, the ED50 in assay [1] (setting [7]) amounted to 2.75 mg/kg. In addition, in assay [1] (in words), the sedative-neuroleptic properties entry was “powerful sedative-neuroleptic properties”. Further, the “effect in respect of sedation, % of that of chlorpromazine” value in assay [1] is recorded as 77%. The “Cataleptic effect R.A. (relative activity)” value in the assay on catalepsy (Table 1, rat, intraperitoneal) came out at 0.2. For the same molecule, the ED50 in the assay with catalepsy (setting [8]) came to 21.5 mg/kg. The “effect in respect of catalepsy, % of that of chlorpromazine” value in the assay with catalepsy stood at 20%. Besides, the “Hypotensive effect R.A. (relative activity)” value in the assay with blood pressure (Table 1, i.p.) amounted to 0.02. Further, the “Q (quotient of the sedative effective dose and the hypotensive effective dose)” value in the assay on blood pressure (Table 1, hypotensive dose i.p.) turned out to be 0.3. In addition, in the assay with blood pressure, the “comparison with chlorpromazine, taking into account the hypotensive effect” value is “clearly superior to chlorpromazine”; the “quotient of the sedative effective dose and the hypotensive effective dose, times more advantageous than for chlorpromazine” value is listed as 43 times. Besides, the ED20 in the assay on blood pressure (ip, Table 1, i.p., dose producing 20% lowering of blood pressure) was found to be 10 mg/kg.

For `COc1ccccc1N1CCN(CC(O)COc2cccc(-c3cc[nH]n3)c2)CC1` (stereo not drawn) [Example 15, 1-[3-(Pyrazol-3-yl)-phenoxy]-3-[4-(2-methoxyphenyl)-piperazin-1-yl]-propan-2-ol.3HCl], the “doses at which sedative side-effect is observed relative to hypotensive doses” value in assay [1] (Table 2) is reported as 400-1,300 times greater. Also, the “Sedative effect R.A. (relative activity)” value in assay [1] (Table 2, mouse, oral) is recorded as 0.08. In addition, in assay [1] (setting [6]), the ED50 came out at 25.1 mg/kg. For the same molecule, the “Hypotensive effect R.A. (relative activity)” value in the assay with blood pressure (Table 2, i.v.) is on record as 1.39. For the same molecule, in the assay on blood pressure (setting [3]), the Q is listed as 1,342. Moreover, in the assay with blood pressure (Table 2), the “hypotensive action, doses compared with chlorpromazine” value was “at lower doses than chlorpromazine”. Besides, the ED20 in the assay with blood pressure (setting [5]) was 0.0187 mg/kg.

With `OC(COc1ccc(-n2cncn2)cc1)CN1CCN(c2ccc(F)cc2)CC1` (stereo not drawn) [Example 2, 1-[4-(1,2,4-Triazol-1-yl)-phenoxy]-3-[4-(4-fluorophenyl)-piperazin-1-yl]-propan-2-ol], in assay [1] (Table 1, mouse, oral), the “Sedative effect R.A. (relative activity)” value is recorded as 0.84. Moreover, the ED50 in assay [1] (setting [7]) was 2.52 mg/kg; in the assay with catalepsy (setting [8]), 10 mg/kg. Moreover, in assay [1] (in words), the sedative-neuroleptic properties result is given as “powerful sedative-neuroleptic properties”. In addition, in assay [1], the “effect in respect of sedation, % of that of chlorpromazine” value was determined as 84%. The “Cataleptic effect R.A. (relative activity)” value with catalepsy (Table 1, rat, intraperitoneal) came to 0.43. For the same molecule, the “effect in respect of catalepsy, % of that of chlorpromazine” value with catalepsy is 43%. Further, the “Hypotensive effect R.A. (relative activity)” value with blood pressure (Table 1, i.v.) was found to be 0.08. In the assay with blood pressure (Table 1, hypotensive dose i.v.), the “Q (quotient of the sedative effective dose and the hypotensive effective dose)” value is 8.0. Moreover, in the assay on blood pressure, the “comparison with chlorpromazine, taking into account the hypotensive effect” value is recorded as “clearly superior to chlorpromazine”. In the assay on blood pressure (iv, Table 1, i.v., dose producing 20% lowering of blood pressure), the ED20 came out at 0.316 mg/kg. Moreover, in the assay with blood pressure, the “quotient of the sedative effective dose and the hypotensive effective dose, times more advantageous than for chlorpromazine” value is 10 times.

These data come from patent US4428950A, “(Hetarylphenoxy)-(phenylpiperazinyl)-propanols, their preparation and drugs containing these compounds” (BASF Aktiengesellschaft, priority 1981, dated 1984).
